Among the test systems are SR leukemia; SK-OV-3 ovarian; SK-MEL-28 melanoma; NCI/ADR-RES ovarian; UO-31 renal; MALME-3M melanoma; UACC-257 melanoma; LOX IMVI melanoma; KM12 colon; NCI-H460 lung.
What all share (assay): growth of human tumour cells (NCI), 48 h

Drawing on PubChem BioAssay (NCI), this text covers TGI and GI50 for eight compounds.

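All cell lines were grown in 96-well plates and treated with compound for 48 hours. GI50 marks 50% less growth. At the TGI there is no net growth.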

For the compound `O=C1CC2OCC=C3CN4CCC5(C(=O)O)C(N1)C2C3CC45` (centres undefined), the TGI with SR leukemia, in the experiment with SK-OV-3 ovarian, in the experiment with SK-MEL-28 melanoma, with NCI/ADR-RES ovarian, in the experiment on UO-31 renal and in the experiment on MALME-3M melanoma was more than 100 µM throughout. For the same compound, the TGI in the experiment with UACC-257 melanoma, with LOX IMVI melanoma, in the experiment on KM12 colon and with NCI-H460 lung was more than 100 µM each time.
In the case of `O=C(N/N=C/c1ccc(N(CCCl)CCCl)cc1)c1ccc(C(=O)N/N=C/c2ccc(N(CCCl)CCCl)cc2)cc1`, the TGI in the experiment on SR leukemia, with SK-OV-3 ovarian, in the experiment on SK-MEL-28 melanoma, in the experiment on NCI/ADR-RES ovarian, in the experiment on UO-31 renal and in the experiment with MALME-3M melanoma was more than 100 µM in each case. Also, the TGI in the experiment on UACC-257 melanoma, with LOX IMVI melanoma, in the experiment on KM12 colon and in the experiment with NCI-H460 lung was more than 100 µM throughout. Further, the GI50 was 10.5 µM in the experiment on SK-OV-3 ovarian; more than 100 µM with SK-MEL-28 melanoma; more than 100 µM in the experiment on NCI/ADR-RES ovarian; more than 100 µM with UO-31 renal; 11.2 µM with MALME-3M melanoma; more than 100 µM in the experiment with UACC-257 melanoma. Also, the GI50 in the experiment with LOX IMVI melanoma was 1.4 µM; in the experiment with KM12 colon, 15.8 µM; in the experiment with NCI-H460 lung it was 0.038 µM.
As to `C1CC[N-]CC1.CC(=N\O)/C(C)=N/O.CC(=N\O)/C(C)=N/O.C[CH-]C(C)O.[Co+2]`, the GI50 in the experiment on SR leukemia was 18.2 µM; with SK-OV-3 ovarian, 89 µM; in the experiment on SK-MEL-28 melanoma, 29.2 µM; in the experiment on NCI/ADR-RES ovarian it was 54.2 µM; in the experiment on UO-31 renal it was 42.9 µM; with MALME-3M melanoma, 15.2 µM. The GI50 in the experiment on UACC-257 melanoma was 18.2 µM; with LOX IMVI melanoma, 17.8 µM; in the experiment on KM12 colon it was 34.3 µM; in the experiment with NCI-H460 lung, 16.8 µM. Also, the TGI with SR leukemia was 45 µM; in the experiment with SK-OV-3 ovarian, more than 100 µM; in the experiment with SK-MEL-28 melanoma, 61.2 µM; in the experiment on NCI/ADR-RES ovarian, more than 100 µM; in the experiment on UO-31 renal, more than 100 µM; with MALME-3M melanoma it was 29.7 µM. In addition, the TGI was 40.2 µM in the experiment with UACC-257 melanoma, 33.7 µM in the experiment with LOX IMVI melanoma, more than 100 µM with KM12 colon and 30.5 µM in the experiment on NCI-H460 lung.
`CSc1nc2ccc(C)cc2cc1/C=C1/C=C(c2ccccc2)NC1=O`: the GI50 in the experiment on SR leukemia was 0.598 µM; in the experiment with SK-OV-3 ovarian, 4.83 µM; in the experiment with SK-MEL-28 melanoma, 23.1 µM; in the experiment with NCI/ADR-RES ovarian, 3.99 µM; with UO-31 renal, 2.58 µM; with MALME-3M melanoma, 3.08 µM. The GI50 in the experiment on UACC-257 melanoma is 94.6 µM; in the experiment with LOX IMVI melanoma, 6.33 µM; with KM12 colon, 3.13 µM; in the experiment with NCI-H460 lung, 0.646 µM. Besides, the TGI in the experiment with SR leukemia was more than 100 µM; with SK-OV-3 ovarian it was more than 100 µM; with SK-MEL-28 melanoma it was more than 100 µM; in the experiment on NCI/ADR-RES ovarian, 87.5 µM; in the experiment on UO-31 renal, 12.4 µM; with MALME-3M melanoma it was 25.9 µM. In addition, the TGI was more than 100 µM in the experiment on UACC-257 melanoma, 33.2 µM in the experiment on LOX IMVI melanoma, 82.9 µM in the experiment with KM12 colon and 10.9 µM in the experiment on NCI-H460 lung.
On to `CN(C)CCOc1ccc2c(c1)C(=O)/C(=C\c1ncc([N+](=O)[O-])n1C)C2`, for which the GI50 was 0.416 µM in the experiment on SR leukemia; 0.923 µM in the experiment on SK-OV-3 ovarian; 0.922 µM in the experiment on SK-MEL-28 melanoma; 1.43 µM with NCI/ADR-RES ovarian; 0.9 µM in the experiment on UO-31 renal; 0.371 µM in the experiment on MALME-3M melanoma. Moreover, the GI50 in the experiment with UACC-257 melanoma was 0.917 µM; with LOX IMVI melanoma, 0.331 µM; in the experiment with KM12 colon it was 1.19 µM; with NCI-H460 lung, 0.217 µM. In addition, the TGI amounted to 0.96 µM in the experiment on SR leukemia; 3.21 µM in the experiment with SK-OV-3 ovarian; 2.79 µM in the experiment with SK-MEL-28 melanoma; 4.55 µM in the experiment with NCI/ADR-RES ovarian; 3.68 µM in the experiment on UO-31 renal; 1.69 µM with MALME-3M melanoma. The TGI with UACC-257 melanoma was determined as 3.19 µM; in the experiment with LOX IMVI melanoma, 1.85 µM; in the experiment on KM12 colon, 3.21 µM; in the experiment with NCI-H460 lung, 0.808 µM.
Take `CNC(=O)c1cc(-c2ccc(F)cc2)cc(-c2ccc(S(=O)(=O)N3CCCC3)cc2)c1N`: the GI50 in the experiment on SR leukemia is more than 25 µM; in the experiment on SK-OV-3 ovarian, more than 25 µM; in the experiment with SK-MEL-28 melanoma, more than 25 µM; with NCI/ADR-RES ovarian it was 16.2 µM; in the experiment on UO-31 renal, 11.3 µM; in the experiment with MALME-3M melanoma it was more than 25 µM. For the same compound, the GI50 is more than 22.6 µM with UACC-257 melanoma, more than 25 µM with LOX IMVI melanoma, 16.6 µM in the experiment on KM12 colon and 15.1 µM with NCI-H460 lung. The TGI in the experiment on SR leukemia, in the experiment with SK-OV-3 ovarian, in the experiment with SK-MEL-28 melanoma, with NCI/ADR-RES ovarian, with UO-31 renal and in the experiment on MALME-3M melanoma was more than 25 µM in each case. Also, the TGI in the experiment with UACC-257 melanoma, in the experiment with LOX IMVI melanoma, in the experiment with KM12 colon and in the experiment with NCI-H460 lung was more than 25 µM in each case.
With `CCCCCCCCc1cc(O)ccc1O`, the GI50 is 15 µM in the experiment on SR leukemia; 34.8 µM with SK-OV-3 ovarian; 17.4 µM in the experiment with SK-MEL-28 melanoma; 19.3 µM with NCI/ADR-RES ovarian; 15 µM in the experiment on UO-31 renal; 16.6 µM in the experiment on MALME-3M melanoma. Also, the GI50 in the experiment with UACC-257 melanoma is 18.6 µM; in the experiment on LOX IMVI melanoma it was 12.8 µM; in the experiment with KM12 colon, 21.4 µM; in the experiment on NCI-H460 lung, 17.3 µM. For the same compound, the TGI is 50.8 µM with SR leukemia; more than 100 µM in the experiment with SK-OV-3 ovarian; 33.4 µM with SK-MEL-28 melanoma; 56.2 µM in the experiment on NCI/ADR-RES ovarian; 28.3 µM in the experiment with UO-31 renal; 34.4 µM in the experiment on MALME-3M melanoma. Also, the TGI in the experiment with UACC-257 melanoma was determined as 56.7 µM; in the experiment with LOX IMVI melanoma, 25.8 µM; with KM12 colon, 51.6 µM; in the experiment with NCI-H460 lung it was 33.1 µM.
Turning to `C[C@@H]1Cc2c(ccc3[nH]ncc23)[C@@H](c2ccc(NC3CN(CCCF)C3)cn2)N1CC(F)(F)F`, the GI50 in the experiment with SR leukemia is 16.8 µM; in the experiment with SK-OV-3 ovarian it was 14.3 µM; in the experiment on SK-MEL-28 melanoma, 16.5 µM; in the experiment with NCI/ADR-RES ovarian it was 32.3 µM; in the experiment with UO-31 renal it was 12.6 µM; in the experiment with MALME-3M melanoma, 12.4 µM. Moreover, the GI50 was 17.9 µM with UACC-257 melanoma, 16.1 µM with LOX IMVI melanoma, 31.3 µM in the experiment on KM12 colon and 18.8 µM in the experiment on NCI-H460 lung. Further, the TGI with SR leukemia is 53.1 µM; in the experiment with SK-OV-3 ovarian it was 37.1 µM; in the experiment on SK-MEL-28 melanoma, 32.1 µM; in the experiment with NCI/ADR-RES ovarian, more than 100 µM; in the experiment on UO-31 renal, 26.8 µM; in the experiment on MALME-3M melanoma, 26.6 µM. Moreover, the TGI in the experiment on UACC-257 melanoma was 38.3 µM; with LOX IMVI melanoma, 31.4 µM; in the experiment with KM12 colon it was more than 100 µM; with NCI-H460 lung it was 37.8 µM.
